The record followed here is ChEMBL document CHEMBL4251597, “Discovery and evolution of aloperine derivatives as a new family of HCV inhibitors with novel mechanism” (Eur J Med Chem, 2018).

A word on the pEC50: it is the negative decadic logarithm of the EC50, by convention in mol/L. The CC50 is the concentration giving 50% cytotoxicity. Read a low CC50 as greater toxicity to the cells.

Data set [1] relates to Hepatitis C virus. Put plainly: Antiviral activity against HCV J6/JFH/JC-1 infected in human Huh7.5 cells assessed as inhibition of viral RNA replication after 72 hrs by qRT-PCR method. Type of data set: functional, organism-based, Hepacivirus hominis. To be noted: J6/JFH/JC-1, Huh7.5, 72 h.
Data set [2] can be described thus: Cytotoxicity against human Huh7.5 cells after 72 hrs by MTT assay. Type of data set: cell-based. (Formazan colour is commonly taken as a measure of viable cells.)
Data set [3] can be described thus: Selectivity index, ratio of CC50 for human Huh7.5 cells to EC50 for HCV J6/JFH/JC-1. Type of data set: toxicity. To be noted: read-out: Ratio CC50/EC50.
In data set [4] the test system is Hepatitis C virus. Put plainly: Antiviral activity against HCV J6/JFH/JC-1 infected in human Huh7.5 cells assessed as inhibition of viral core protein levels at 0.5 uM by Western blot method. Type of data set: functional, organism-based. The conditions noted are these: Hepacivirus hominis, TDE = time-dependent effect.
Data set [5] relates to Hepatitis C virus. Put plainly: Antiviral activity against HCV J6/JFH/JC-1 infected in human Huh7.5 cells assessed as inhibition of NS3/4A protein levels at 0.5 uM by Western blot method. The conditions noted are these: Hepacivirus hominis, TDE = time-dependent effect. Type of data set: functional, organism-based. (In general: Immunoblotting shows a protein as a band on a membrane.)

The subject of data set [6] is Hepatitis C virus. Put plainly: Antiviral activity against HCV J6/JFH/JC-1 infected in human Huh7.5 cells assessed as inhibition of NS3/4A A156T mutant levels at 0.01 to 1 uM treated with fresh media containing compound every 2 days by Western blot method. Type of data set: functional, organism-based. To be noted: Hepacivirus hominis.
Data set [7] has as its system Hepatitis C virus. As to the kind of experiment: Antiviral activity against HCV J6/JFH/JC-1 infected in human Huh7.5 cells harboring NS3/4A A156T mutant assessed as inhibition of viral core protein levels at 0.01 to 1 uM treated with fresh media containing compound every 2 days by Western blot method. Type of data set: functional, organism-based. To be noted: Hepacivirus hominis.

Data set [8] concerns Hepatitis C virus. As to the kind of experiment: Antiviral activity against HCV infected in human GS4.3 cells assessed as inhibition of NS3/4A levels at 0.5 uM treated with fresh media containing compound every 2 days measured after 6 days by Western blot method. Type of data set: functional, organism-based. To be noted: Hepacivirus hominis.
Data set [9] concerns Hepatitis C virus. Put plainly: Antiviral activity against HCV infected in human GS4.3 cells assessed as inhibition of viral core protein levels at 0.5 uM treated with fresh media containing compound every 2 days measured after 6 days by Western blot method. Type of data set: functional, organism-based. The conditions noted are these: Hepacivirus hominis.
For data set [10], the system named is Hepatitis C virus. Put plainly: Antiviral activity against HCV J6/JFH/JC-1 infected in human Huh7.5 cells assessed as inhibition of NS3/4A levels at 0.05 uM preincubated for 2 hrs followed by centrifugation for 4 hrs and subsequent addition of Huh7.5 cells measured within 72 hrs by Western blot method. The conditions noted are these: Hepacivirus hominis. Type of data set: functional, organism-based.

For data set [11], the system named is Hepatitis C virus. As to the kind of experiment: Antiviral activity against HCV J6/JFH/JC-1 infected in human Huh7.5 cells assessed as inhibition of viral core protein levels at 0.05 uM preincubated for 2 hrs followed by centrifugation for 4 hrs and subsequent addition of Huh7.5 cells measured within 72 hrs by Western blot method. Type of data set: functional, organism-based. The conditions noted are these: Hepacivirus hominis.

In data set [12] the test system is Hepatitis C virus. As to the kind of experiment: Antiviral activity against HCV J6/JFH/JC-1 infected in human Huh7.5 cells assessed as inhibition of NS3/4A levels at 0.05 uM preincubated for 2 hrs followed addition of Huh7.5 cells for 4 hrs measured within 72 hrs by Western blot method. Type of data set: functional, organism-based. To be noted: Hepacivirus hominis.

The test system of data set [13] is Hepatitis C virus. As to the kind of experiment: Antiviral activity against HCV J6/JFH/JC-1 infected in human Huh7.5 cells assessed as inhibition of viral core protein levels at 0.05 uM preincubated for 2 hrs followed addition of Huh7.5 cells for 4 hrs measured within 72 hrs by Western blot method. Type of data set: functional, organism-based. The conditions noted are these: Hepacivirus hominis.

For data set [14], the system named is Hepatitis C virus. As to the kind of experiment: Antiviral activity against HCV J6/JFH/JC-1 infected in human Huh7.5 cells assessed as inhibition of NS3/4A S282T mutant levels at 0.01 to 1 uM treated with fresh media containing compound every 2 days by Western blot method. Type of data set: functional, organism-based. The conditions noted are these: Hepacivirus hominis.

The test system of data set [15] is Hepatitis C virus. As to the kind of experiment: Antiviral activity against HCV J6/JFH/JC-1 infected in human Huh7.5 cells harboring […] S282T mutant assessed as inhibition of viral core protein levels at 0.01 to 1 uM treated with fresh media containing compound every 2 days by Western blot method. The conditions noted are these: Hepacivirus hominis. Type of data set: functional, organism-based.

Data set [16] deals with Hepatitis C virus. Put plainly: Antiviral activity against HCV infected in human GS4.3 cells assessed as inhibition of NS3/4A levels at 0.8 uM treated with fresh media containing compound every 2 days measured after 6 days by Western blot method. To be noted: Hepacivirus hominis. Type of data set: functional, organism-based.
The subject of data set [17] is Hepatitis C virus. Put plainly: Antiviral activity against HCV infected in human GS4.3 cells assessed as inhibition of viral core protein levels at 0.8 uM treated with fresh media containing compound every 2 days measured after 6 days by Western blot method. Type of data set: functional, organism-based. To be noted: Hepacivirus hominis.
The subject of data set [18] is Hepatitis C virus. As to the kind of experiment: Antiviral activity against 22.5 to 90 IU/cell of HCV J6/JFH/JC-1 infected in human Huh7.5 cells assessed as inhibition of NS3/4A levels at 0.05 uM treated with fresh media containing compound every 2 days by Western blot method. To be noted: Hepacivirus hominis. Type of data set: functional, organism-based.
The subject of data set [19] is Hepatitis C virus. Put plainly: Antiviral activity against 22.5 to 90 IU/cell of HCV J6/JFH/JC-1 infected in human Huh7.5 cells assessed as inhibition of viral core protein levels at 0.05 uM treated with fresh media containing compound every 2 days by Western blot method. Type of data set: functional, organism-based. To be noted: Hepacivirus hominis.

pEC50: −log10 of the molar value. Activity calls are given as the source filed them. No cut-off for these calls is given here.

For the molecule `CCC[C@H](NC(=O)[C@@H]1[C@H]2CCC[C@H]2CN1C(=O)[C@@H](NC(=O)[C@@H](NC(=O)c1cnccn1)C1CCCCC1)C(C)(C)C)C(=O)C(=O)NC1CC1` [TELAPREVIR], the negative logarithm of the EC50 (pEC50) in the data set on Hepatitis C virus [1] is 7.52. The midpoint of cytotoxicity in data set [2], the CC50 at 72 h, lay at 25.2 µM. Moreover, in [3], the selectivity ratio came out at 840. Also, the inhibition result in the data set with Hepatitis C virus [4] and in the data set on Hepatitis C virus [5] was “Tde” each time. Moreover, the inhibition result in the data set on Hepatitis C virus [6], in the data set with Hepatitis C virus [7], in the data set on Hepatitis C virus [10] and in the data set on Hepatitis C virus [11] was “inactive” in each case. Besides, the inhibition entry in the data set on Hepatitis C virus [8], in the data set with Hepatitis C virus [9], in the data set on Hepatitis C virus [12] and in the data set on Hepatitis C virus [13] was “Active” in each case.

Regarding `CC(C)OC(=O)[C@H](C)NP(=O)(OC[C@H]1O[C@@H](n2ccc(=O)[nH]c2=O)[C@](C)(F)[C@@H]1O)Oc1ccccc1` (some centres undefined), the inhibition result with Hepatitis C virus [14], in the data set with Hepatitis C virus [15], in the data set with Hepatitis C virus [18] and in the data set on Hepatitis C virus [19] was “inactive” in each case. For the same molecule, the inhibition result in the data set on Hepatitis C virus [16] and in the data set with Hepatitis C virus [17] was “Active” in each case.
